Reference: patent EP4786487A1, “PEPTIDE” (Peptidream Inc, priority 2023, dated 2025)
Starred links: 1 amine or outer side, 2 acyl side, 3 side chain; linkers in the order of their positions; H or OH if unused. Positions of bridges follow the written chain, without caps; N, C: chain ends. Non-standard residues stand in square brackets, D forms with d. Residues, ends and D or L forms follow the SMILES beside them. Phe(3-OCH2COOH) = N[C@@H](Cc1cccc(OCC(=O)O)c1)C(=O)O; Phe(4-COOH) = N[C@@H](Cc1ccc(C(=O)O)cc1)C(=O)O; Trp(7-aza) = N[C@@H](Cc1c[nH]c2ncccc12)C(=O)O; Bip = N[C@@H](Cc1ccc(-c2ccccc2)cc1)C(=O)O; Gly(N(CH2)3COOH) = O=C(O)CCCNCC(=O)O; X1 = CCCCCCC[C@H](N[*:1])C(=O)[*:2]; NMeF = CN[C@@H](Cc1ccccc1)C(=O)O; 4Pal = N[C@@H](Cc1ccncc1)C(=O)O; NMeA = CN[C@@H](C)C(=O)O; Sar = CNCC(=O)O

What was measured:
Assay type in all cases: cell-based
Myostatin [1] = molecular target: T1, Myostatin (Homo sapiens, UniProt O14793); experiment: Reporter gene assay for myostatin signaling in HepG2 cell line, Evaluation Procedure (1), myostatin inhibition; conditions: Method A: Myostatin 10 ng/mL; read-out: IC50 (Luciferase) Myostatin HepG2
T1 construct: active myostatin (also called mature myostatin) is a homodimer consisting of two C-terminal growth factor domains; purchased R&D systems 788-G8/CF
T1 sequence (O14793 267-375): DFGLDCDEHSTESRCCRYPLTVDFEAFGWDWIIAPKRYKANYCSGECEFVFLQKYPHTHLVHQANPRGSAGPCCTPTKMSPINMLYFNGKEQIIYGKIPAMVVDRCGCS
Summary of the method: (§1)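 HepG2 cells transfected with pGL3(CAGA)12-luciferase reporter, serum-starved in 0.1% BSA medium, then stimulated with myostatin or GDF-11 plus 4-fold peptide dilutions (0.006–100 nmol/L for myostatin, 0.12–2000 nmol/L for GDF-11) for 20–24 h at 37 °C. Luminescence read with One-Glo; IC50 calculated.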

Myostatin [2] = experiment: as above; conditions: Method A; GDF-11 IC50 versus Myostatin IC50
Summary of the method: as §1

GDF-11 = molecular target: T2, GDF-11 (Homo sapiens, UniProt O95390); experiment: Reporter gene assay for myostatin signaling in HepG2 cell line, Evaluation Procedure (1), GDF-11 inhibition; conditions: Method A: GDF-11 10 ng/mL; read-out: IC50 (Luciferase) GDF-11 HepG2
T2 construct: purchased R&D systems 1958-GD-G8/CF
T2 sequence (O95390 299-407): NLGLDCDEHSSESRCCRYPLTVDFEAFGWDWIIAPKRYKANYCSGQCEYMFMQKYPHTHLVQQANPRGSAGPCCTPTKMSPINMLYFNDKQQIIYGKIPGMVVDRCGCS
Summary of the method: as §1

| Compound | IC50 (Myostatin [1]) | IC50 (GDF-11) | Selectivity (Myostatin [2]) |
| --- | --- | --- | --- |
| CCCCCCC[C@@H]1NC(=O)[C@H](Cc2ccccc2)N(C)C(=O)[C@H](CCCNC(=N)N)NC(=O)[C@H](Cc2ccc(C(=O)O)cc2)NC(=O)[C@H](Cc2ccncc2)NC(=O)CN(C)C(=O)[C@H]([C@@H](C)CC)NC(=O)[C@H](Cc2ccccc2)N(C)C(=O)[C@H](Cc2ccc(O)cc2)NC(=O)[C@H](Cc2c[nH]c3ncccc23)NC(=O)[C@H](C)NC(=O)CN(CCCC(=O)O)C(=O)CSC[C@H](C(=O)O)NC(=O)[C@H](Cc2ccccc2)N(C)C(=O)[C@H](C)N(C)C1=O [Myostatin_99_v170] ({CH2CO}-[Gly(N(CH2)3COOH)]A[Trp(7-aza)]Y[NMeF]I[Sar][4Pal][Phe(4-COOH)]R[NMeF][X1][NMeA][NMeF][dC]-OH; thioether N-15) | 3.3 nM | 215 nM | 65 |
| CC[C@H](C)[C@@H]1NC(=O)[C@H](Cc2ccccc2)N(C)C(=O)[C@H](Cc2ccc(O)cc2)NC(=O)[C@H](Cc2c[nH]c3ccccc23)NC(=O)[C@H](CO)NC(=O)CN(CCCC(=O)O)C(=O)CSC[C@H](C(=O)O)NC(=O)[C@H](Cc2ccccc2)N(C)C(=O)[C@H](C)N(C)C(=O)[C@H](CC(C)C)NC(=O)[C@H](Cc2ccccc2)N(C)C(=O)[C@H](CCCNC(=N)N)NC(=O)[C@H](Cc2ccc(C(=O)O)cc2)NC(=O)[C@H](Cc2ccc(O)cc2)NC(=O)CN(C)C1=O [Myostatin_99_v171] ({CH2CO}-[Gly(N(CH2)3COOH)]SWY[NMeF]I[Sar]Y[Phe(4-COOH)]R[NMeF]L[NMeA][NMeF][dC]-OH; thioether N-15) | 44.7 nM | 909 nM | 20 |
| CC[C@H](C)[C@@H]1NC(=O)[C@H](Cc2ccccc2)N(C)C(=O)[C@H](Cc2ccc(O)cc2)NC(=O)[C@H](Cc2c[nH]c3ccccc23)NC(=O)[C@H](C)NC(=O)[C@H](C)NC(=O)CSC[C@H](C(=O)O)NC(=O)[C@H](Cc2ccccc2)N(C)C(=O)[C@H](C)N(C)C(=O)[C@H](CC(C)C)NC(=O)[C@H](Cc2ccccc2)N(C)C(=O)[C@H](CCCNC(=N)N)NC(=O)[C@H](Cc2ccc(C(=O)O)cc2)NC(=O)[C@H](Cc2ccc(O)cc2)NC(=O)CN(C)C1=O [Myostatin_99_v172] ({CH2CO}-AAWY[NMeF]I[Sar]Y[Phe(4-COOH)]R[NMeF]L[NMeA][NMeF][dC]-OH; thioether N-15) | 5.1 nM | 173 nM | 34 |
| CCCCCCC[C@@H]1NC(=O)[C@H](Cc2ccccc2)N(C)C(=O)[C@H](CCCNC(=N)N)NC(=O)[C@H](Cc2ccc(C(=O)O)cc2)NC(=O)[C@H](Cc2ccc(O)cc2)NC(=O)CN(C)C(=O)[C@H]([C@@H](C)CC)NC(=O)[C@H](Cc2ccccc2)N(C)C(=O)[C@H](Cc2ccc(O)cc2)NC(=O)[C@H](Cc2c[nH]c3ccccc23)NC(=O)[C@H](CO)NC(=O)CN(CCCC(=O)O)C(=O)CSC[C@H](C(=O)O)NC(=O)[C@H](Cc2ccccc2)N(C)C(=O)[C@H](C)N(C)C1=O [Myostatin_99_v173] ({CH2CO}-[Gly(N(CH2)3COOH)]SWY[NMeF]I[Sar]Y[Phe(4-COOH)]R[NMeF][X1][NMeA][NMeF][dC]-OH; thioether N-15) | 5.5 nM | 232 nM | 42 |
| CCCCCCC[C@@H]1NC(=O)[C@H](Cc2ccccc2)N(C)C(=O)[C@H](CCCNC(=N)N)NC(=O)[C@H](Cc2ccc(C(=O)O)cc2)NC(=O)[C@H](Cc2cccc(OCC(=O)O)c2)NC(=O)CN(C)C(=O)[C@H]([C@@H](C)CC)NC(=O)[C@H](Cc2ccccc2)N(C)C(=O)[C@H](Cc2ccc(O)cc2)NC(=O)[C@H](Cc2c[nH]c3ccccc23)NC(=O)[C@H](C)NC(=O)[C@H](C)NC(=O)CSC[C@H](C(=O)O)NC(=O)[C@H](Cc2ccccc2)N(C)C(=O)[C@H](C)N(C)C1=O [Myostatin_99_v174] ({CH2CO}-AAWY[NMeF]I[Sar][Phe(3-OCH2COOH)][Phe(4-COOH)]R[NMeF][X1][NMeA][NMeF][dC]-OH; thioether N-15) | 1.7 nM | 226 nM | 133 |

Further lines, with some results ahead:

| IC50 (Myostatin [1]) | IC50 (GDF-11) | Compound | Selectivity (Myostatin [2]) |
| --- | --- | --- | --- |
| 16.4 nM | 399 nM | CC[C@H](C)[C@@H]1NC(=O)[C@H](Cc2ccccc2)N(C)C(=O)[C@H](Cc2ccc(O)cc2)NC(=O)[C@H](Cc2c[nH]c3ccccc23)NC(=O)[C@H](CO)NC(=O)[C@H](C)NC(=O)CSC[C@H](C(=O)O)NC(=O)[C@H](Cc2ccccc2)N(C)C(=O)[C@H](C)N(C)C(=O)[C@H](CC(C)C)NC(=O)[C@H](Cc2ccccc2)N(C)C(=O)[C@H](CCCNC(=N)N)NC(=O)[C@H](Cc2ccc(C(=O)O)cc2)NC(=O)[C@H](Cc2ccc(O)cc2)NC(=O)CN(C)C1=O [Myostatin_99_v175] ({CH2CO}-ASWY[NMeF]I[Sar]Y[Phe(4-COOH)]R[NMeF]L[NMeA][NMeF][dC]-OH; thioether N-15) | 24 |
| 17.3 nM | 377 nM | CC[C@H](C)[C@@H]1NC(=O)[C@H](Cc2ccccc2)N(C)C(=O)[C@H](Cc2ccc(O)cc2)NC(=O)[C@H](Cc2ccc(-c3ccccc3)cc2)NC(=O)[C@H](C)NC(=O)CN(CCCC(=O)O)C(=O)CSC[C@H](C(=O)O)NC(=O)[C@H](Cc2ccccc2)N(C)C(=O)[C@H](C)N(C)C(=O)[C@H](CC(C)C)NC(=O)[C@H](Cc2ccccc2)N(C)C(=O)[C@H](CCCNC(=N)N)NC(=O)[C@H](Cc2ccc(C(=O)O)cc2)NC(=O)[C@H](Cc2ccc(O)cc2)NC(=O)CN(C)C1=O [Myostatin_99_v176] ({CH2CO}-[Gly(N(CH2)3COOH)]A[Bip]Y[NMeF]I[Sar]Y[Phe(4-COOH)]R[NMeF]L[NMeA][NMeF][dC]-OH; thioether N-15) | 22 |
| 12.1 nM | 250 nM | CC[C@H](C)[C@@H]1NC(=O)[C@H](Cc2ccccc2)N(C)C(=O)[C@H](Cc2ccc(O)cc2)NC(=O)[C@H](Cc2c[nH]c3ccccc23)NC(=O)[C@H](C)NC(=O)CN(CCCC(=O)O)C(=O)CSC[C@H](C(=O)O)NC(=O)[C@H](Cc2ccccc2)N(C)C(=O)[C@H](C)N(C)C(=O)[C@H](CC(C)C)NC(=O)[C@H](Cc2ccccc2)N(C)C(=O)[C@H](CCCNC(=N)N)NC(=O)[C@H](Cc2ccc(C(=O)O)cc2)NC(=O)[C@H](Cc2ccc(O)cc2)NC(=O)[C@H](C)N(C)C1=O [Myostatin_99_v178] ({CH2CO}-[Gly(N(CH2)3COOH)]AWY[NMeF]I[NMeA]Y[Phe(4-COOH)]R[NMeF]L[NMeA][NMeF][dC]-OH; thioether N-15) | 21 |
| 1.5 nM | 163 nM | CCCCCCC[C@@H]1NC(=O)[C@H](Cc2ccccc2)N(C)C(=O)[C@H](CCCNC(=N)N)NC(=O)[C@H](Cc2ccc(C(=O)O)cc2)NC(=O)[C@H](Cc2ccc(O)cc2)NC(=O)CN(C)C(=O)[C@H]([C@@H](C)CC)NC(=O)[C@H](Cc2ccccc2)N(C)C(=O)[C@H](Cc2ccc(O)cc2)NC(=O)[C@H](Cc2ccc(-c3ccccc3)cc2)NC(=O)[C@H](C)NC(=O)CN(CCCC(=O)O)C(=O)CSC[C@H](C(=O)O)NC(=O)[C@H](Cc2ccccc2)N(C)C(=O)[C@H](C)N(C)C1=O [Myostatin_99_v179] ({CH2CO}-[Gly(N(CH2)3COOH)]A[Bip]Y[NMeF]I[Sar]Y[Phe(4-COOH)]R[NMeF][X1][NMeA][NMeF][dC]-OH; thioether N-15) | 108 |
| 4.5 nM | 194 nM | CCCCCCC[C@@H]1NC(=O)[C@H](Cc2ccccc2)N(C)C(=O)[C@H](CCCNC(=N)N)NC(=O)[C@H](Cc2ccc(C(=O)O)cc2)NC(=O)[C@H](Cc2ccc(O)cc2)NC(=O)[C@H](C)N(C)C(=O)[C@H]([C@@H](C)CC)NC(=O)[C@H](Cc2ccccc2)N(C)C(=O)[C@H](Cc2ccc(O)cc2)NC(=O)[C@H](Cc2c[nH]c3ccccc23)NC(=O)[C@H](C)NC(=O)CN(CCCC(=O)O)C(=O)CSC[C@H](C(=O)O)NC(=O)[C@H](Cc2ccccc2)N(C)C(=O)[C@H](C)N(C)C1=O [Myostatin_99_v181] ({CH2CO}-[Gly(N(CH2)3COOH)]AWY[NMeF]I[NMeA]Y[Phe(4-COOH)]R[NMeF][X1][NMeA][NMeF][dC]-OH; thioether N-15) | 43 |
| 53 nM | 1360 nM | CC[C@H](C)[C@@H]1NC(=O)[C@H](Cc2ccccc2)N(C)C(=O)[C@H](Cc2ccc(O)cc2)NC(=O)[C@H](Cc2ccc(-c3ccccc3)cc2)NC(=O)[C@H](C)NC(=O)CN(CCCC(=O)O)C(=O)CSC[C@H](C(=O)O)NC(=O)[C@H](Cc2ccccc2)N(C)C(=O)[C@H](C)N(C)C(=O)[C@H](CC(C)C)NC(=O)[C@H](Cc2ccccc2)N(C)C(=O)[C@H](CCCNC(=N)N)NC(=O)[C@H](Cc2ccc(C(=O)O)cc2)NC(=O)[C@H](Cc2ccc(O)cc2)NC(=O)[C@H](C)N(C)C1=O [Myostatin_99_v182] ({CH2CO}-[Gly(N(CH2)3COOH)]A[Bip]Y[NMeF]I[NMeA]Y[Phe(4-COOH)]R[NMeF]L[NMeA][NMeF][dC]-OH; thioether N-15) | 26 |
| 14.2 nM | 1830 nM | CC[C@H](C)[C@@H]1NC(=O)[C@H](Cc2ccccc2)N(C)C(=O)[C@H](Cc2ccc(O)cc2)NC(=O)[C@H](Cc2ccc(-c3ccccc3)cc2)NC(=O)[C@H](C)NC(=O)CN(CCCC(=O)O)C(=O)CSC[C@H](C(=O)O)NC(=O)[C@H](Cc2ccccc2)N(C)C(=O)[C@H](C)N(C)C(=O)[C@H](CC(C)C)NC(=O)[C@H](Cc2ccccc2)N(C)C(=O)[C@H](CCCNC(=N)N)NC(=O)[C@H](Cc2ccc(C(=O)O)cc2)NC(=O)[C@H](Cc2cccc(OCC(=O)O)c2)NC(=O)CN(C)C1=O [Myostatin_99_v184] ({CH2CO}-[Gly(N(CH2)3COOH)]A[Bip]Y[NMeF]I[Sar][Phe(3-OCH2COOH)][Phe(4-COOH)]R[NMeF]L[NMeA][NMeF][dC]-OH; thioether N-15) | 129 |
